“Also recorded” adds a separate entry of the source.
Tests used:
RAD51 [1] = biological target: T1, RAD51 (Homo sapiens, UniProt Q06609); assay: DNA binding assay (RAD51-ssDNA complexes); format: biochemical; conditions: B02 25 μM, without NaCl challenge
T1 construct: made in house
T1 sequence (Q06609 1-339): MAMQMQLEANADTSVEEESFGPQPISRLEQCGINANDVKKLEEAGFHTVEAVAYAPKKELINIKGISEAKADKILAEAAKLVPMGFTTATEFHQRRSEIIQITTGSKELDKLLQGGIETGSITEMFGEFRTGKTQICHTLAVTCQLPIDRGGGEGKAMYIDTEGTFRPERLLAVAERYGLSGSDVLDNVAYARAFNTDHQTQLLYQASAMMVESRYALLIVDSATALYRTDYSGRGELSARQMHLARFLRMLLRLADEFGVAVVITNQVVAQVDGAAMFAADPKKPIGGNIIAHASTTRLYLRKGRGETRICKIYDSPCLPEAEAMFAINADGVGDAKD
Method: DNA binding assay was performed as described (Bugreev et al., 2005, J. Biol. Chem. 280:26886-95). […] After 10 min, reactions was mixed with 0.2 vol of loading buffer and loaded on 10% polyacrylamide gels (135 V, 20 mA) in 0.5×TBE buffer containing 45 mM Tris borate (pH 8.3) and 0.25 mM EDTA. Gels were quantified using a Storm 840 PhosphorImager.

RecA [2] = biological target: T2, RecA (Escherichia coli, UniProt P0A7G6); assay: biochemical; parameters: species or system E. coli
T2 construct: purchased USB Inc. (Cleveland, Ohio)
Method: (Mazin et al., 2000, EMBO J. 19:1148-56). When indicated, chemical compounds in specified concentrations were added and incubation was continued for 30 min at 37° C. D-loop formation was initiated by addition of supercoiled pUC19 dsDNA (50 μM, nt) and carried out for 3 min at 37° C. The DNA products were deproteinized and analyzed as described above for the Rad51-promoted reaction.
(§1) IC50 values were calculated using GraphPad Prism V5.0 software and the sigmoidal dose-response function. The data were obtained from three independent repeats of experiments.

HEK cells = assay: Clonogenic survival, HEK cells sensitivity to cisplatin; format: cell-based, human
Method: (§2) Briefly, MEF cells were trypsinized and the appropriate number of cells was replated on 10 cm tissue culture dishes. […] Cells were fixed and stained using staining solution (0.05% crystal violet, 50% methanol in PBS); colonies were counted using an AlphaImager 3400 (Alpha Innotech Inc.). The percent of survival was determined as described (Hall & Giccia, 2005, “Radiobiology for the Radiologist”, 6th Ed., Philadelphia, Pa.: Lippincott Williams & Wilkins, pp. 30-45). The percent of survival obtained from untreated cells was normalized to 100% survival.
To suppress RAD51 expression, HEK cells were transfected with 100 nM RAD51 siRNA (sc-36361; Santa Cruz Biotechnology). Briefly, cells (1×10^6) were seeded in a 3.5-cm tissue culture plate and incubated overnight, then the medium was removed and the cell layer was washed three times with PBS. Transfection was carried out by adding 1 ml transfection solution containing 100 pmol […] siRNA and 10 μl siRNA transfection reagent (sc-29528; Santa Cruz Biotechnology) in Opti-MEM I Reduced-Serum medium (Invitrogen) to each plate. Six to 7 hours after transfection the medium was replaced with fresh DMEM+. Twenty-four, 48, 72, and 96 h after transfection, the RAD51 level was determined using Western blotting. As a specificity control scrambled siRNA (sc-37007; Santa Cruz Biotechnology) was used instead of RAD51 siRNA.

RecA [3] = biological target: T2, RecA; assay: Branch migration assay, RecA; format: biochemical, E. coli; conditions: B02 10-100 μM
Method: Branch migration was initiated by addition of ^32P-labeled 5′-joint molecules (0.1 nM, molecules) that were produced by RecA-promoted reaction and was carried out for 30 min. The DNA products were deproteinized and analyzed in 1.5% agarose-TAE gels and quantified using a Storm 840 PhosphorImager (GE Healthcare).

MEF cells = assay: Clonogenic survival assay, MEF; format: cell-based, mouse
Method: as §2

RAD51 [4] = biological target: T1, RAD51; assay: D-loop assay for RAD51; format: biochemical; conditions: compounds 100 μM; RAD51 1 μM
Method: When indicated, chemical compounds in question were added in specified concentrations and incubation was continued for 30 min at 37° C. D-loop formation was initiated by addition of supercoiled pUC19 dsDNA (50 μM, nt) and continued for 15 min. Reactions were stopped by addition of SDS to 1% (w/v) and proteinase K to 880 μg ml^−1 followed by incubation for 15 min at 37° C. […] The yield of joint molecules was expressed as a percentage of the total plasmid DNA.
The reaction was deproteinized and analyzed as described above.
as §1

[5] = tested on: DR-GFP reporter system in 293 human embryonic kidney (HEK) cells; assay: DR-GFP assay for homologous recombination in human cells; format: cell-based; conditions: B02 20 μM; non-treatment cells 3.28%
Method: 293 HEK cells expressing DR-GFP were grown until the log phase. […] Then a 200 μl mixture containing 2 μg of pCBASce supercoiled plasmid DNA encoding I-SceI rare-cutting restriction endonuclease (Richardson et al., 1998, Genes Dev. 12:3831-42) and 6 μl of GenDrill™ transfection reagent (BamaGen BioScience LLC) in Opti-MEM® I Reduced-Serum (Invitrogen) was added to each well. After 2 days incubation, cells were trypsinized and diluted to density of 200 cells/μl in PBS (10 mM Na2HPO4, 1.76 mM KH2PO4, 137 mM NaCl and 2.7 mM KCl, pH 7.4) for Fluorescence Activated Cell Sorting (FACS) analysis on a Guava EasyCyte Plus System (Millipore, Billerica, Mass.).

pUC19 supercoiled dsDNA = assay: Ethidium bromide displacement assay; format: binding
Method: The fluorescence of the sample was measured using a FlouroMax-3 fluorimeter at an excitation wavelength of 260 nm and an emission wavelength of 546 nm. Then, the small molecule inhibitors were added in increasing concentrations and allowed to equilibrate for 1 min, followed by the fluorescence measurement.

RAD51 [6] = biological target: T1, RAD51; assay: B02 binding to RAD51 by SPR; conditions: absence of ATP
Method: Data were analyzed using the ProteOn Manager Software version 3.0 (Bio-Rad).

Tp53−/− MEF cells = assay: Clonogenic survival assay, Tp53−/− MEF; format: cell-based, mouse
Method: as §2

T2 sequence (P0A7G6 whole entry): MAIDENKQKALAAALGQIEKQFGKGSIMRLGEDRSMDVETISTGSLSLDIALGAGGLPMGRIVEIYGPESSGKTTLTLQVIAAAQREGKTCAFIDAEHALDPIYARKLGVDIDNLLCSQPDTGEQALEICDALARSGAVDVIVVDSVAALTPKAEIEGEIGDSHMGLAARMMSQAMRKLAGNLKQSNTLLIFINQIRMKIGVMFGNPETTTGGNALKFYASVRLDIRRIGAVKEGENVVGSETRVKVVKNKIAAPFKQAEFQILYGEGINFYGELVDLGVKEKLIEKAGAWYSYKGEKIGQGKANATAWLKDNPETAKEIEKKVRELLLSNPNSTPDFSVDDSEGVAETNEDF

O=c1c2ccccc2nc(/C=C/c2cccnc2)n1Cc1ccccc1 [Compound B02, (E)-3-benzyl-2-(2-(pyridin-3-yl)vinyl)quinazolin-4(3H)-one]
loss of filaments (RAD51 [1]): 20% | IC50 (RecA [2]; IC50 (RecA), RecA 1 μM, ssDNA 3 μM, dsDNA 50 μM): > 250 µM | IC50 (RecA [2]; IC50 for RecA (D-loop), RecA 0.3 μM, ssDNA 0.9 μM, dsDNA 15 μM, B02 incubated with protein before ssDNA): > 100 µM | inhibition of RecA DNA strand exchange, in words (RecA [2]; up to 250 μM): no significant inhibition | incubation time at which maximal sensitivity was reached (HEK cells; B02 5 μM, cisplatin 16 μM): 16 h | incubation time required to increase the sensitivity of HEK cells for cisplatin (HEK cells; B02 5 μM, cisplatin 16 μM): 10 to 12 h | sensitization of HEK cells to cisplatin (HEK cells; B02 combined with RAD51 siRNA versus each alone): more strongly sensitized | inhibition of branch migration activity of RecA (RecA [3]): did not inhibit | sensitivity to cisDDP (cisplatin) and MMC (MEF cells; B02 5 μM): more sensitive | sensitivity to MMS (MEF cells; B02 5 μM co-treatment with MMS): enhancement of sensitivity | sensitivity to MMS (MEF cells; B02 5 μM plus AZD2281 1 μM versus AZD2281 only): more sensitive | increase in sensitivity to MMC (MEF cells; B02 5 μM, MMC 1 μM): fivefold | increase in sensitivity to cisplatin (MEF cells; B02 5 μM, cisplatin 32 μM): approximately 17 fold | cellular viability, B02 alone (MEF cells; up to 5 μM, wild type MEF): No decrease of cellular viability; also recorded: did not have a substantial effect | Joint Molecules (%) (RAD51 [4]): 6.0 ± 0.5% | yield of GFP positive cells (I-SceI-induced) [5]: 0.40% | DNA binding, result in words (pUC19 supercoiled dsDNA): not to bind DNA | kd (RAD51 [6]): 2.5 (±0.3)×10^−2 s^−1 | sensitivity to cisDDP (cisplatin) and MMC (Tp53−/− MEF cells; B02 5 μM): more sensitive; also recorded: increased | cellular viability, B02 alone (Tp53−/− MEF cells; up to 5 μM, Tp53−/− MEF): No decrease of cellular viability; also recorded: did not have a substantial effect

Reference: patent publication US9750742B2, “Small molecular inhibitors of RAD51 recombinase and methods thereof” (Drexel University, priority 2011, dated 2017)
